Data reported in patent publication US20240238299A1, “USE OF PYRROLOPYRIMIDINE COMPOUND” (GUANGZHOU JOYO PHARMATECH CO., LTD, priority 2021, published 2024).
pIC50: −log10 of the molar value. Read-outs that look alike come from different tables or passages of the source.

Assays:
BV-2 cells = assay: CTG cell proliferation assay, LPS/IFN-γ-activated BV-2 cells; type: cell-based, Mouse
Procedure: (§1) Step 1: BV-2 cells in the exponential growth phase were collected, and viable cells were counted using a Vi-Cell XR cell counter. The cell suspension was adjusted to an appropriate concentration with the culture medium. 160 μL of cell suspension was added to each well of a 96-well cell culture plate, resulting in a final cell concentration of 12,000 cells per well. The culture plate was incubated for 24 hours in a 37° C., 5% CO2 incubator.
(§2) Step 2: A 10 mM DMSO compound stock solution was diluted at a ratio of 1:4 using DMSO to prepare a series of 1000× test compound solutions. These 1000× test compound solutions were further diluted at a ratio of 1:100 using cell culture medium to prepare a series of 10× test compound solutions. Finally, the 96-well plate that had been plated with cells the day before was taken out. According to the experimental well plate loading design, 20 μL of the corresponding 10× solution was added to each well, with three duplicate wells for each drug concentration. The final concentrations of the test compounds used in the experiment (i.e., 1× solutions) have a range of 10, 2.5, 0.625, 0.156, 0.0391, 0.0098, and 0.0024 μM. The final DMSO concentration in each well was 0.1%.
(§3) After the compound was added, the 96-well plate was incubated for half an hour in the 37° C., 5% CO2 incubator.
(§4) After the pre-incubation was completed, 20 μL of culture medium containing 100 ng/mL LPS and 100 ng/mL IFN-γ (final concentrations of 10 ng/mL LPS and 10 ng/mL IFN-7) was added to each well to induce the activation of BV-2 cells. The culture plate was then incubated for 24 hours in the 37° C., 5% CO2 incubator.
(§5) Step 3: After 24 hours of treatment with the compound, the culture plate was centrifuged at 1200 rpm for 5 minutes. The supernatant was pipetted into another plate, which was sealed with tinfoil and stored at −20° C. for future ELISA and Griess reagent system assays. The cell culture plate from which the supernatant had been removed was immediately used for cell proliferation assays using the CellTiter-Glo (CTG) method.
Step 4: In the cell culture plate from which the supernatant had been removed, 100 μL of PBS was added to each well. According to the instructions of the CellTiter-Glo (CTG) kit, 50 μL of pre-melted and room-temperature balanced CTG solution was added to each well. The plate was then mixed for 2 minutes using a microplate shaker. After letting it stand at room temperature for 10 minutes, the fluorescence signal value was measured using an Envision 2104 plate reader.
Step 1: Using the CTG fluorescence signal values, the percentage of surviving cells (surviving cells %) at each test concentration relative to the blank (DMSO) group was calculated. The formula was: surviving cells %=fluorescence value of the test concentration group/fluorescence value of the blank group.
Step 2: the percentage of surviving cells was plotted against the logarithm of the compound concentration. Nonlinear regression was used to fit the curve, and the formula “log(inhibitor) vs. response—Variable slope” in the software GraphPad Prism 5 was employed to calculate the IC50 value.
Step 3: The formula for calculating the inhibition rate was: inh. (%)={fluorescence value of the blank group−fluorescence value of the test concentration group}/fluorescence value of the blank (DMSO) group.

[1] = system: mouse CCL5 secretion by BV-2 cell line; assay: CCL5 secretion by LPS/IFN-γ-activated BV-2 cells (ELISA); type: cell-based
Procedure: as §1, §2, §3
as §4, with “incubator. […]” for “incubator.”
(§6) Step 5 (NO and CCL5 detection): The CCL5 levels in the supernatant were detected using an ELISA kit (Mouse CCL5/RANTES DuoSet ELISA; R&D; DY478-05), following the instructions provided with the kit. The nitric oxide (NO) levels in the supernatant were detected using the Griess Reagent System (Promega; G2930), following the instructions provided with the kit.
(§7) Step 1: Firstly, the optical density values obtained from ELISA and Griess tests were used to plot a standard curve and calculate the absolute concentrations of each sample. The absolute concentration was then calibrated using the CTG fluorescence value corresponding to each sample to obtain the calibrated concentration. The formula for calculating the calibrated concentration was: calibrated concentration=absolute concentration/CTG fluorescence value of the same sample.
Step 2: Based on the calibrated concentration of each sample, the relative percentage of CCL5 or NO secretion (i.e., CCL5 production (%) or NO production (%)) at each test concentration relative to the blank (DMSO) group was calculated. […]

[2] = system: NO secretion by BV-2 cell line; assay: NO secretion by LPS/IFN-γ-activated BV-2 cells (Griess Reagent System); type: cell-based, Mouse; conditions: for pIC50: Mus musculus, BV-2, 24 h co-incubation
Procedure: as §1, §2, §3, §4, §5, §6, §7
Step 2: Based on the calibrated concentration of each sample, the relative percentage of CCL5 or NO secretion (i.e., CCL5 production (%) or NO production (%)) at each test concentration relative to the blank (DMSO) group was calculated. The formula for calculating the relative percentage was: relative percentage %=(calibrated concentration of the test concentration group)/(calibrated concentration of the blank group).
Step 3: Finally, the relative percentage of CCL5 secretion or the relative percentage of NO secretion was plotted against the logarithm of the compound concentration. […]

[3] = 24 h co-incubation, up to 10 μM

pIC50 ([1]; Mus musculus, BV-2, 24 h co-incubation): < 5.00
pIC50 ([2]; read-out: IC50 on NO secretion by BV-2): < 5.00
pIC50 ([2]; read-out: IC50 on NO secretion by BV-2 (text of b102)): < 5.00
Structure (SMILES): CCc1cc(/C(C)=N/OCc2ccc(C3CCCCC3)c(C(F)(F)F)c2)ccc1CN1CC(C(=O)O)C1 [Siponimod, reference compound]
inhibitory effect on cell proliferation (BV-2 cells; 24 h co-incubation with BV-2, highest test concentration 10 μM): no significant inhibitory effect on cell proliferation
inhibition at up to 10 µM (BV-2 cells; Mus musculus, BV-2, 24 h co-incubation, LPS/IFN-γ, highest concentration 10 μM, read-out: Maximum inhibition rate on BV-2 cell proliferation): 4.44%
Maximum inhibition rate on CCL5 secretion by BV-2 [1, 3]: 35.16%
Maximum inhibition rate on NO secretion by BV-2 [2, 3]: 7.71%
